Reference: US20150274701A1, “NEW AZIDES, METHOD FOR PRODUCING SAME AND APPLICATIONS THEREOF” (COMMISSARIAT A L'ENERGIE ATOMIQUE ET AUX ENERGIES …, priority 2012, published 2015)

Experiments:
[1] = Azide/alkyne click reaction kinetics in a buffered medium (fluorescent test); details: for Reaction rate / Ligation yield: aqueous medium at neutral pH, azide, alkyne and Cu 17.5 μM, sodium ascorbate 475 μM (25 eq); for Ligation yield: monitored for 20 minutes
Method: The azide/alkyne coupling reaction kinetics obtained using azides of the present invention and also the kinetics obtained using copper-chelating compounds and azides of the prior art were studied.
The kinetics were done under concentration conditions conventional in bioconjugation, i.e. in an aqueous medium at neutral pH and under conditions of low concentration of reagents: azide, alkyne and Cu 17.5 μM, sodium ascorbate 475 μM (25 eq).
The reactivity of the azides of the invention with respect to the azide/alkyne “click” reaction was evaluated by means of a fluorescent test (scheme 1) which makes it possible to establish the kinetic parameters of the reaction and to compare them with the solutions from the literature. This test uses a pro-fluorescent alkyne C1 which forms a highly fluorescent cycloaddition product C2. The synthesis and the fluorescence properties are described in the literature.
100 μl of a solution containing 35 μM of alkyne C1 and 35 μm of azide RN3 dissolved in a DMF/H2O mixture (50/50) are added to 50 μl of an aqueous solution containing 70 μM of CuSO4. The reaction is then initiated by adding 50 μl of an aqueous solution containing 1.75 mM of ascorbic acid (AS). The cycloaddition reaction is monitored by measuring, every 5 seconds, for 20 minutes, the fluorescence intensity at 400 nm following excitation at 320 nm. The reaction yield is calculated by means of a calibration range previously established with the cyclo-adduct C2.

[2] = Click reaction kinetics of chelating azides in phosphate buffer (fluorescent test); details: 0.1M phosphate buffer pH 7.4; alkyne and azide 17 μM, copper sulfate 34 μM, sodium ascorbate 850 μM
Method: (§1) The reaction kinetics were determined by means of a fluorescent test illustrated by the reaction below, making it possible to establish the kinetic parameters of the reaction and to compare them with the solutions from the literature. This test uses a pro-fluorescent alkyne which forms a highly fluorescent cycloaddition product.
(§2) The operating conditions are the following: the same concentration of 17 μM was used for the alkyne and for the azide. The copper sulfate concentration was 34 μM and the sodium ascorbate (AS) concentration was 850 μM.
(§3) The process was carried out, on the one hand, in a 0.1M phosphate buffer at pH 7.4 and, on the other hand, in a cell lysate obtained by means of three cycles of sonication of Jurkat ([…]) for 30 seconds. The alkyne, the azide and the copper sulfate are mixed at ambient temperature for 30 minutes and then the kinetics are initiated by adding sodium ascorbate.

[3] = Click reaction kinetics of chelating azides in cell lysate (fluorescent test); details: cell lysate of Jurkat (human T-cell leukemia), alkyne and azide 17 μM, copper sulfate 34 μM, sodium ascorbate 850 μM
Method: as §1, §2, §3

[4] = Ligation kinetics in a complex medium (cell lysate), fluorescent test; details: azide and alkyne 17.5 μM, Cu 350 μM, sodium ascorbate 8.75 mM (500 eq)
Method: An experiment was also carried out in a cell culture medium. The process was carried out as follows:
100 μl of a solution containing 35 μM of alkyne C1 and 35 μM of azide RN3 dissolved in cell lysate are added to 50 μl of cell lysate containing 1.4 mM of CuSO4. The reaction is then initiated by adding 50 μl of an aqueous solution containing 1.75 mM of ascorbic acid (AS). The cycloaddition reaction is monitored by measuring, every 5 seconds, for 20 minutes, the fluorescence intensity at 400 nm following excitation at 320 nm. The reaction yield is calculated by means of a calibration range previously established with the cyclo-adduct C2.
Conditions: Azide and alkyne 17.5 μM, Cu 350 μM, sodium ascorbate 8.75 mM (500 eq).

[5] = test system: HuH-7 cells; assay: Ligation in living cells, fluorescence microscopy; format: cell-based; details: HuH-7 cells pre-incubated with 62.5 nM paclitaxel-alkyne 2; 100 μM copper complex of compound 1 for 4 h
Method: HuH-7 cells fixed on 96-well plates, incubated beforehand in the presence of paclitaxel 2 comprising an alkyne function, were treated with the copper complex above.
The cells were treated with 100 μl of a 62.5 nM solution of compound 2 dissolved in 0.1M phosphate buffer, and then incubated at 37° C. for 30 min. The cells are then washed twice by adding 100 μl of 0.1M phosphate buffer and then treated for 4 h with 100 μl of a 100 μM solution of the copper complex of compound 1. The cells are again washed twice by adding 100 μl of 0.1M phosphate buffer and then fixed by treating with 150 μl of a 4% formaldehyde solution. After fixing for 15 min, the cells are washed twice by adding 100 μl of 0.1M phosphate buffer and then incubated with a 62.5 nM solution of Tubulin Tracker® Green 3 for 30 min at 37° C. The cells are again washed with 0.1M phosphate buffer and then observed by fluorescence microscopy.
After cell washing steps, the fluorescence of the rhodamine part of the copper complex of compound 1 was measured. […] Compound 3, a covalent conjugate between the paclitaxel and the Oregon Green® fluorophore, was used as a control.
FIG. 8A illustrates the localization of the cell nucleus by the 4′,6′-diamidino-2-phenylindole reagent.

| Compound | Reaction rate [1] | Ligation yield [1] | click reaction activity (FIG. 6) [2] | click reaction activity (FIG. 7) [3] | position of the ligation yield versus time curve in FIG. 5 [4] | other results |
| --- | --- | --- | --- | --- | --- | --- |
| [N-]=[N+]=NCCCN(Cc1cn(Cc2ccccc2)nn1)Cc1cn(Cc2ccccc2)nn1 [Preparation 2, 3-azido-N, N-bis((1-benzyl-1H-1,2,3-triazol-4-yl)methyl)propan-1-amine] | 10.8 µM/min | 45% | – | – | – | – |
| [N-]=[N+]=NCCCN(Cc1ccccn1)Cc1ccccn1 [Example A14, reference compound] | – | – | inactive | inactive | – | – |
| [N-]=[N+]=NCc1ccccn1 [Comparative example 2, reference compound] | 4.2 µM/min | 28% | – | – | – | – |
| [N-]=[N+]=NCCCN(Cc1cn(CCCCC(=O)O)nn1)Cc1cn(CCCCC(=O)O)nn1 [Example 1, 5,5′-(4,4′-(((3-azidopropyl)azanediyl)bis(methylene))bis(1H-1,2,3-triazole-4,1-diyl))dipentanoic acid] | 12.0 µM/min | 74% | make it possible to carry out the click reaction with efficiency | make it possible to carry out the click reaction with efficiency | – | ligation yields relative to the best comparable compounds of the prior art ([1]; buffered medium): twice as high |
| COc1ccnc(CN=[N+]=[N-])c1 [Comparative example 3, reference compound] | 3.5 µM/min | 35% | – | – | lower curves | – |
| Cn1c(CN(CCCN=[N+]=[N-])Cc2nc3ccccc3n2C)nc2ccccc21 [Preparation 1, 3-Azido-N,N-bis((1-methyl-1H-benzo[d]imidazol-2-yl)methyl)propan-1-amine] | 101.7 µM/min | 65% | – | – | – | click reaction faster than the comparable compounds of the prior art ([1]; buffered medium): approximately 20 times |
| CN(C)c1ccc2c(-c3cc(C(=O)NCCCN4C(=O)CC(SCC(=O)NCCCNC(=O)CCCn5cc(CN(CCCN=[N+]=[N-])Cc6cn(C(C)(C)C)nn6)nn5)C4=O)ccc3C(=O)[O-])c3ccc(=[N+](C)C)cc-3oc2c1 (centres unmarked) [azide 1, 4-((3-(3((2-((3-(4-(4-(((3-azidopropyl)((1-(tert-butyl)-1H-1,2,3-triazol-4-yl)methyl)amino)methyl)-1H-1,2,3-triazol-1-yl)butanamido)propyl)amino)-2-oxoethyl)thio)-2,5-dioxopyrrolidin-1-yl)propyl)carbamoyl)-2-(6-(dimethylamino)-3-(dimethyliminio)-3H-xanthen-9-yl)benzoate] | – | – | – | – | – | cell penetration and intracellular click coupling to paclitaxel-alkyne 2 bound to tubulin (FIG. 8) [5]: capable of penetrating inside the cells and of coupling |
| CC(C)(C)n1cc(CN(CCCN=[N+]=[N-])Cc2cn(CCCCC(=O)O)nn2)nn1 [Example 2, 5-(4-(((3-azidopropyl)((1-(tert-butyl)-1H-1,2,3-triazol-4-yl)methyl)amino)methyl)-1H-1,2,3-triazol-1-yl)pentanoic acid] | – | – | make it possible to carry out the click reaction with efficiency | particularly effective | upper curve | click reaction activity (FIG. 7) ([3]; listed as A20): make it possible to carry out the click reaction with efficiency |
| Diethyl 5,5′-(4,4′-(((3-azidopropyl)azanediyl)bis(methylene))bis(1H-1,2,3-triazole-4,1-diyl))dipentanoate [Preparation 3] | 16.5 µM/min | 67% | – | – | middle curve | ligation yields relative to the best comparable compounds of the prior art ([1]; buffered medium): twice as high |
